What was measured:
[1] = system: Human glioma U1242/luc-GFP cells; experiment: Cell toxicity assay (luciferase assay); format: cell-based; details: 48 h, carriers at concentrations up to 33 μM
Method: Cell toxicity assays. Human glioma U1242/luc-GFP cells stably expressing the reporter luciferase were exposed to various CPT equivalent concentrations of polymer-CPT conjugates or polymer control samples (n=4) in a 96-well microtiter plate for 48 h followed by luciferase assay to assess survival of cells.

[2] = physiological pH, background statement; cited from earlier work

Structure (SMILES): CC[C@@]1(O)C(=O)OCc2c1cc1n(c2=O)Cc2cc3ccccc3nc2-1 [CPT, 20(S)-Camptothecin]
- cytotoxicity [1]: dose-dependent toxic
- stability of lactone form [2]: rapidly transforms into the carboxylate form
